Experimental data taken from patent publication US20190230932A1, “Synergistic Combinations Of Monochloramine And Organic Acid, And Methods Of Using The Same For Microbial Control” (Buckman Laboratories International, Inc., priority 2018, published 2019).

Assays:
[1] = system: Pseudomonas bacterial cells; assay: Checkerboard of monochloramine and citric acid, OD 600 nm growth curves over 48 hours (Example 2, FIGS. 2-5); assay type: cell-based
Procedure: In this study, Pseudomonas bacterial cells were grown in nutrient broth media. The nutrient broth media comprised corn mash (35 wt %) and water. Appropriate amount of culture cells, monochloramine and/or citric acid were transferred into 24-well plate and incubated at 37° C. for 48 hrs. in a plate reader. The 24-well plate layout held samples which contained monochloramine added in concentrations (ppm) of 0, 12.5, 50 and 100 ppm in different rows of well samples, and citric acid added in concentrations (ppm) of 0, 500, 3,000, 7,000, 10,000, and 20,000 in different columns of well samples, in a checkerboard pattern. Bacterial growth was monitored for each sample using a UV-VIS spectrophotometer to measure optical density (OD) (at measurement wavelength 600 nm) for the samples for 48 hours. The growth curves from the data are plotted in FIGS. 2-5.

[2] = system: Pseudomonas bacterial cells; assay: Checkerboard of monochloramine and citric acid, bacterial growth in corn mash nutrient broth, 24-well plate (Example 1); as to Bacterial growth at 12 hr.: key: −−−: No further growth observed; +++: Growth observed; assay type: cell-based; design: Bacterial growth at 12 hr. / Bacterial growth at 14 hr.: key: −−−: No further growth observed; +++: Growth observed; conditions: for Bacterial growth at 12 hr. / Bacterial growth at 14 hr.: 37° C., 600 nm
Procedure: Laboratory experiments were performed to study the microbicidal efficacy of a combination of monochloramine with citric acid.
Pseudomonas bacterial cells were grown in nutrient broth media. The nutrient broth media comprised corn mash (35 wt %) and water. Appropriate amount of culture cells, monochloramine and/or citric acid were transferred into 24-well plate and incubated at 37° C. The 24-well plate layout held samples which contained monochloramine added in concentrations (ppm) of 0.00, 12.50, 50.00 and 100.00 in different rows of well samples, […], in different columns of well samples, in a checkerboard pattern, such as shown in Tables 1 and 2. Bacterial growth was monitored for each sample at 12 hours and 14 hours. Measurement was qualitative based upon measurement in a plate reader. A UV-VIS spectrophotometer was used at measurement wavelength 600 nm.

Q: Which results are given for `O=C(O)CC(O)(CC(=O)O)C(=O)O` [Citric acid (CA), citric acid]?
A: control of bacteria growth (OD 600 nm growth curve) ([1]; citric acid alone, 500 to 20,000 ppm, no MCA, FIG. 2): not all of the evaluated citric acid concentrations controlled bacteria growth; inhibition of bacterial growth ([2]; 10,000 ppm citric acid added individually (no MCA)): not inhibitory to bacterial growth; Bacterial growth at 12 hr. ([2]; MCA 0 ppm, CA 500 ppm): +++; Bacterial growth at 14 hr. ([2]; MCA 0 ppm, CA 500 ppm): +++; Bacterial growth at 12 hr. ([2]; MCA 0 ppm, CA 1000 ppm): +++; Bacterial growth at 14 hr. ([2]; MCA 0 ppm, CA 1000 ppm): +++; Bacterial growth at 12 hr. ([2]; MCA 0 ppm, CA 3000 ppm): +++; Bacterial growth at 14 hr. ([2]; MCA 0 ppm, CA 3000 ppm): +++; Bacterial growth at 12 hr. ([2]; MCA 0 ppm, CA 7000 ppm): +++; Bacterial growth at 14 hr. ([2]; MCA 0 ppm, CA 7000 ppm): +++; Bacterial growth at 12 hr. ([2]; MCA 0 ppm, CA 10000 ppm): +++; Bacterial growth at 14 hr. ([2]; MCA 0 ppm, CA 10000 ppm): +++

Q: `NCl` [Oxamine (MCA), monochloramine] was tested. Which “control of bacteria growth (OD 600 nm growth curve)” value (shortened to “control of bacteria growth”) ([1]; 12.5 ppm monochloramine alone, FIG. 3) did it give?
A: no control of bacteria growth

Q: And the “control of bacteria growth” value ([1]; 50 ppm monochloramine alone, FIG. 4)?
A: cells growth was delayed

Q: And the “control of bacteria growth” value ([1]; 100 ppm monochloramine without citric acid, FIG. 5)?
A: total inhibition of bacteria growth

Q: And the “inhibition of bacterial growth” value ([2]; 50 ppm monochloramine added individually)?
A: not inhibitory to bacterial growth

Q: And the “control of bacterial growth” value ([2]; 100 ppm MCA alone)?
A: sufficient to control

Q: What about the “Bacterial growth at 12 hr.” value ([2]; MCA 12.5 ppm, CA 0 ppm) of the same compound?
A: +++

Q: What about the “Bacterial growth at 14 hr.” value ([2]; MCA 12.5 ppm, CA 0 ppm) of the same compound?
A: +++

Q: What about the “Bacterial growth at 12 hr.” value ([2]; MCA 50 ppm, CA 0 ppm) of the same compound?
A: +++

Q: And the “Bacterial growth at 14 hr.” value ([2]; MCA 50 ppm, CA 0 ppm)?
A: +++
